In ChEMBL document CHEMBL1157656, “Fragment-based deconstruction of Bcl-xL inhibitors” (J Med Chem, 2010):
Where a name gives a salt, the structure may show the parent alone.

Assays:
[1] = target: T1, Bcl-2-like protein 1 (Homo sapiens, UniProt Q07817); assay: Binding affinity to 6xHis-tagged human Bcl-xL
[2] = target: T1, Bcl-2-like protein 1; assay: Inhibition of Bcl-xL expressed in Saccharomyces cerevisiae
[3] = target: T1, Bcl-2-like protein 1; assay: Inhibition of Bcl-xL

T1 sequence (Q07817 whole entry): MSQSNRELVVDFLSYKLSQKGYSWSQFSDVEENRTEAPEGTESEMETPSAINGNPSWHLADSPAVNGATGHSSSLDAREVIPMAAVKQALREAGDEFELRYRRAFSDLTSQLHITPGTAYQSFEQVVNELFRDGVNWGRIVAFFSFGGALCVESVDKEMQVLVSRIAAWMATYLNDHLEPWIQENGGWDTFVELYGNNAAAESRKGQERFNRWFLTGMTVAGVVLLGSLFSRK

## Oc1ccccc1-c1ccccc1 [2-PHENYLPHENOL]
[1]
  Kd: 2700 µM

## COC1=CC(c2cc3ccccc3[nH]2)=N/C1=C\c1[nH]c(C)cc1C [OBATOCLAX MESYLATE]
[2]
  IC50: 4.69 µM

## Cc1cc2c(C(C)C)c(O)c(O)c(C=O)c2c(O)c1-c1c(C)cc2c(C(C)C)c(O)c(O)c(C=O)c2c1O [GOSSYPOL]
[3]
  IC50: 0.48 µM
